Key:
92 kD gelatinase = 92 kD gelatinase (Homo sapiens, UniProt P14780); experiment: Assay of 92 KD gelatinase inhibition activity; assay type: biochemical; settings: 92KD gelatinase 25 pM, H-150 buffer pH 7.4; read-out: Ki(app)
Procedure: H-150 buffer, pH 7.4, was prepared by CaCl2 H2 O (1.47 grams), NaCl (8.77 grams) and N-[2-hydroxyethyl]piperazine-N'-[2-ethanesulfonic acid](23.83 grams) to distilled and deionized water and then bring the final volume of the solution to 1 liter. A reaction mixture having a final volume of 500 μL was prepared with H-150 buffer, 200 μgrams of Pro-92KD gelatinase (Strongin et al., J. Biol. Chem., 268:14033 (1993); Goldberg, et al., J. Biol. Chem., 267:4583 (1992); Okada et al., J. Biol. Chem. 267:21712 (1992)), p-aminophenyl mercuric acetate (Sigma Chemical Co., St. Louis, Mo.) (1 mM) and Brij (dodexylpoly(oxyethyleneglycolether))(0,008% w/v). The reaction mixture wsa then incubated for 24 hours at 37° C.
The reaction mixture was applied to a NAP-5 column (G-25 SEPHADEX™, Pharmacia). Fractions containing 72KD gelatinase were identified using 12% polyacrylamide gel electrophoresis and concentrated to about 100-200 μliters by centrifigation (5000 g, 1 hour).
A solution containing H-150 buffer (2.0 mL), 92KD gelatinase (25 pM) and ethylphenolpoly(ethylene-glycolether)n (Boerhringer Mannheim) (4.0 μM) was prepared in a stirred cuvette. Coumarin peptide substrate (4 μL of a 5 mM solution in dimethyl sulfoxide) was added to the reaction mixture. The rate of hydrolysis was determined for about 100-200 seconds by measuring the fluorescence of the reaction at ex328 nanometers and […] using a Hitachi F-2000 Fluorescence Spectrophotometer.
(§1) 2 μL of a 10 mM inhibitor stock solution (in dimethyl sulfoxide) is added and the reduction in the rate of hydrolysis is determined. Additional 2 μL aliquots of the stock inhibitor solution is added until a 30% to 70% inhibition is observed. Ki is calculated on the assumption of simple competitive inhibition and that the substrate concentration is much less than Km.

[1] = test system: bovine cartilage explants; experiment: Bovine cartilage explant assay (35S-GAG release, rhIL-1α stimulated); assay type: cell-based; settings: rhIL-1α 5 ng/mL, 3-4 days culture
From the text: A tissue culture assay was used to measure the ability of the compounds of the present invention to slow the degradation of the extracellular matrix by metalloproteinases. This assay measured the amount of ^35 S-glycosaminoglycan (^35 S-GAG) released from labeled bovine cartilage explants.
Knee joints from a 1 to 3 week old calf were obtained immediately after sacrifice from the Abattoir and then transported on ice. The intact joints were washed well with tap water and soaked in 50% (v/v) Povidine iodine solution, obtained from Burre National, Inc., Baltimore, Md. All subsequent steps were performed in a laminar flow tissue culture hood using standard sterile technique. The joint was immobilized in a shank holder and the joint capsule was cut open to expose the articular cartilage. Cartilage explant plugs, approximately 15 mg wet weight, were removed from the flat articulating surfaces in the lower-most region of the knee joint using a sterile steel cork-borer and collected in a 250 mL roller bottle containing about 100 mL fresh Delbecco's minimum essential medium (DMEM), obtained from Gibco BRC, Life Technologies, Gaithersburg, Md., containing 4.5 g/l (D)-glucose and (L)-glutamine, without sodium pyruvate. The fresh media also contained enough Hepes buffer and sodium bicarbonate such that the pH was about 7.4. The media was then further supplemented just before use with 100 units Penicillin, 100 μg Streptomycin, and 50 μg (L)-ascorbic acid per mL of medium.
Once collected, the explant plugs were washed four times with 50 mL fresh DMEM. The plugs were then placed in the incubator for a minimum of 1 hour to equilibrate, before proceeding to make disks from the articulating surface of each plug. A 1 mm thick disk was sliced from individual plugs from the end that was the articulating surface of the joint. The plug was held steady in the sterile template (4 mm diameter×1.5 mm deep) using sterile forceps. A scalpel blade was used to carefully slice off the disk. Only the superficial articulating surface responded well in culture.
Individual disks obtained were transferred to a tissue culture flask containing about 100 mL fresh media. The flask containing the disks was placed in an incubator at 37° C. (with 5% CO2, 95% air) and allowed to equilibrate overnight and at least one additional day before labeling. When ready to label, the old media was replaced with 50 mL fresh media containing about 500 μCi ^35 S-Sodium Sulfate. The plugs were labeled in bulk for about 48 hours. The next morning, the "hot" media was removed and replaced with fresh "cold" media. The disks were again allowed to equilibrate overnight before being used for actual experiments.
The media in which the disks were stored was changed immediately prior to performing the assay. The disks were then returned to the incubator until the test media and the two control media had been prepared. The test media consisted of the desired concentration of a compound being tested for its ability to inhibit extracellular matrix degradation and concomitant recombinant human Interleukin rhIL-1α (5 ng/mL) in fresh DMEM solution. The control media were identical to the test media, except that the first control media lacked rhIL-1α and the second control media lacked the test compound. 250 μL of each of the test and control media were transferred to separate 96-well TC plates. Flamed forceps were used to transfer a disk from the incubator to each 96-well TC plates that had been filled with either the test media or one of the two control media.
The TC plates were then placed in the incubator and cultured for 3-4 days (initial incubation with rhIL-1α alpha takes at least 3 days to stimulate endogenous metalloproteinases). A 50 μL aliquot of media from each TC plate was saved and counted. The rest of the media was removed with a suction device.
The cartilage disks from each TC plate were also saved for counting. […]

stromelysin = stromelysin (Homo sapiens, UniProt P08254); experiment: Assay of stromelysin inhibition activity (fluorogenic coumarin peptide substrate); assay type: biochemical; settings: trypsin-activated stromelysin 2 nM, H-150 buffer pH 7.4, room temperature; read-out: Ki(app)
Procedure, shortened: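 Human stromelysin trypsin-activated, then used at 2 nM in HEPES/NaCl/CaCl2 buffer pH 7.4 at room temperature with coumarin peptide substrate. Initial hydrolysis rate followed by fluorescence (ex 328/em 393 nm); inhibitor added stepwise to 30-70% inhibition, Ki derived assuming simple competitive inhibition with substrate far below Km.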

[2] = biological target: human neutrophil collagenase (Homo sapiens, UniProt P22894); experiment: Assay of human neutrophil collagenase inhibition activity; assay type: biochemical; settings: human neutrophil collagenase 2 nM, H-150 buffer pH 7.4; read-out: Ki(app)
Procedure: H-150 buffer, pH 7.4, was prepared by adding CaCl2 H2 O (1.47 grams), NaCl (8.77 grams) and N-[2-hydroxyethyl]piperazine-N'-[2-ethanesulfonic acid] (23.83 grams) to distilled and deionized water and then bringing the final volume of the solution to 1 liter.
A reaction mixture with a final volume of 2.0 mL was prepared from H-150 buffer, human neutrophil collagenase (Schnierer, et al., Blochem. Biophys. Res. Comm., 191:319 (1993); Knight et al., Federation of Europena Biochemical Societies 296:263 (1992)) (2 nM). Coumarin peptide substrate (4 μL of a 5 mM solution in dimethyl sulfoxide) was added to the reaction mixture. The rate of hydrolysis was determined for about 100-200 seconds by measuring the fluorescence of the reaction at ex328 nanometers and […] using a Hitachi F-2000 Fluorescence Spectrophotometer.
as §1

Sequence of stromelysin (P08254 100-477): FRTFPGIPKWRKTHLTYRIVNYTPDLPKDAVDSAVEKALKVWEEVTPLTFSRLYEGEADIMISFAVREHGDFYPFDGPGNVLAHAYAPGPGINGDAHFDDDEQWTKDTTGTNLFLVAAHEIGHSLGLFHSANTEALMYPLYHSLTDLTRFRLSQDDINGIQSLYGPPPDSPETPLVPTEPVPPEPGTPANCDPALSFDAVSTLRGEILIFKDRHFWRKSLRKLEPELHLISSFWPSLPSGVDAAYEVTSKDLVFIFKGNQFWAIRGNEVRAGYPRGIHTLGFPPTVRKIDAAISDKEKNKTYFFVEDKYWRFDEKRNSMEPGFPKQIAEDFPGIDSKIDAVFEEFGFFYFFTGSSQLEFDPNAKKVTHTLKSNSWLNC
Sequence of 92 kD gelatinase (P14780 107-707): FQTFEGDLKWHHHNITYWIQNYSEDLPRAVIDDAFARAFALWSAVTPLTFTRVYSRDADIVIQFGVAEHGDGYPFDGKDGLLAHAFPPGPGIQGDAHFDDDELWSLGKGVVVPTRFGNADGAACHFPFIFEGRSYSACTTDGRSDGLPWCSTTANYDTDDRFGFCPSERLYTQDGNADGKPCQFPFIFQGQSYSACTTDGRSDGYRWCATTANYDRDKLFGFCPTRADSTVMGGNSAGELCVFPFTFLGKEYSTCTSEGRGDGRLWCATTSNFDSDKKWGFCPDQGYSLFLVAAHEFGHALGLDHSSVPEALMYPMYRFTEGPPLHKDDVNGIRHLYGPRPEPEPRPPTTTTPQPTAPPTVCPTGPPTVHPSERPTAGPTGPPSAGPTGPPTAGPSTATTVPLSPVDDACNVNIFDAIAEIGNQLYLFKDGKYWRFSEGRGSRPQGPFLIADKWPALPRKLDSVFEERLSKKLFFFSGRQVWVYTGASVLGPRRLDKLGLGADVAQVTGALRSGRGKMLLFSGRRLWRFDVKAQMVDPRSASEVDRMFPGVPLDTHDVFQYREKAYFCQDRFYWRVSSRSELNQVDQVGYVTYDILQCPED
Sequence of human neutrophil collagenase (P22894 101-467): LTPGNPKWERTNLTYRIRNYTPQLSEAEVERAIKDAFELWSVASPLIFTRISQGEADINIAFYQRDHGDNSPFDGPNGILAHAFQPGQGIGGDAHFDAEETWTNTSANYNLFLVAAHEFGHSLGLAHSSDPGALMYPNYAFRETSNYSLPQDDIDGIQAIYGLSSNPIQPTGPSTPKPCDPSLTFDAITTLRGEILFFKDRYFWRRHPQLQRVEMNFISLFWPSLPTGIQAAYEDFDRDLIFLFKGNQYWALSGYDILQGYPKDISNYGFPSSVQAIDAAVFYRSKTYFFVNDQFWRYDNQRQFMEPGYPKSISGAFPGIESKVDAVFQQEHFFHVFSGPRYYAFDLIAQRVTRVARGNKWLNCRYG

SMILES | % inhibition (concentration [μM]) of cartilage degradation ([1]; 50 μM compound) | Ki (stromelysin) | further results
O=C(N[C@@H](CCc1ccccc1)C(=O)Nc1n[nH]c(=S)s1)OCC1c2ccccc2-c2ccccc21 [5-(N-(9-flourenylmethoxycarbonyl)homophenylalanylamino)-1,3,4-thiadiazole-2-thione] | 65% | 436 nM | Ki (92 kD gelatinase): 0.35 nM
CC(C)[C@H](NC(=O)OCC1c2ccccc2-c2ccccc21)C(=O)Nc1n[nH]c(=S)s1 [5-(N-(9-fluorenylmethoxycarbonyl)valylamino)-1,3,4-thiadiazole-2-thione] | – | 128 nM | inhibition at 20 µM ([1]; Bos taurus, 20 μM compound, read-out: % inhibition (concentration [μM]) of cartilage degradation): 42%
CC(C)[C@H](NC(=O)Cc1ccc(-c2ccccc2)cc1)C(=O)Nc1n[nH]c(=S)s1 [5-(N-((4-phenyl)phenylacetyl)valylamino)-1,3,4-thiadiazole-2-thione] | – | 100 nM | inhibition at 25 µM ([1]; Bos taurus, 25 μM compound, read-out: % inhibition (concentration [μM]) of cartilage degradation): 47%
CC(C)[C@H](NC(=O)[C@H](Cc1ccc(OCc2ccccc2)cc1)NC(=O)OCc1ccccc1)C(=O)Nc1n[nH]c(=S)s1 [5-(N-benzyloxycarbnyl-(O-benzyl)tyrosyl-valylamino)-1,3,4-thiadiazole-2-thione] | 59% | 80 nM | Ki [2]: 2.15 nM
CC(C)[C@H](NC(=O)[C@H](CCC(=O)NC(c1ccccc1)(c1ccccc1)c1ccccc1)NC(=O)OCc1ccccc1)C(=O)Nc1n[nH]c(=S)s1 [5-(N-benzyloxycarbonyl-(7--N-trityl)glutamyl-valyamino-1,3,4-thiadiazole-2-thione] | – | 91 nM | % inhibition (concentration [μM]) of cartilage degradation ([1]; 25 μM compound): 56%
CC(C)[C@H](NC(=O)[C@H](CCC(=O)OCc1ccccc1)NC(=O)OCc1ccccc1)C(=O)Nc1n[nH]c(=S)s1 [5-(N-benzyloxycarbonyl-(O-benzyl)glutamoyl-valylamino)-1,3,4-thiadiazole-2-thione] | – | 146 nM | % inhibition (concentration [μM]) of cartilage degradation ([1]; 25 μM compound): 33%
O=C(N[C@@H](Cc1c[nH]c2ccccc12)C(=O)N[C@@H](Cc1ccccc1)C(=O)Nc1n[nH]c(=S)s1)OCc1ccccc1 [5-(N-benzyloxycarbonyl-tryptoyl-phenylalanylamino)-1,3,4-thiadiazole-2-thione] | 35% | 225 nM | –

From US5677282A (Proscript, Inc., priority 1995, dated 1997)
